Results reported in patent US8580268B2, “CpG oligonucleotide analogs containing hydrophobic T analogs with enhanced immunostimulatory activity” (Coley Pharmaceutical GmbH, priority 2006, dated 2013).
“Also recorded” adds a separate entry of the source. Strand notation (5' to 3'): a small letter for the sugar, then the base; units joined by * are phosphorothioate-linked, units joined directly phosphodiester-linked; [ ] holds rarer units or linkages, { } end groups; capitals alone tell only the bases. [5IU] = 5-iodo-2'-deoxyuridine (publication's JU); d = 2'-deoxy (DNA)

Assays:
[1] = test system: BALB/c mice; test: In vivo murine IFN-alpha induction after SC injection (ELISA); set-up: species or system mouse; conditions: bled at 3 hr post injection
Method: (§1) Female BALB/c mice (6-8 weeks of age) were purchased from Charles River Canada (Quebec, Canada) and housed in micro-isolators in the Animal Care Facility at Coley Pharmaceutical Group Canada. All studies were conducted in accordance with the Animal Care Committee of Coley Canada under the guidance of the Canadian Council on Animal Care. All animals were naïve to CpG ODNs.
In order to determine the effect of the modified P-class ODN in vivo, BALB/c mice (5 per group) were injected SC with differing doses of ODN. Animals were bled at 3 hr post injection and plasma tested for IFN-alpha by ELISA. The activity of modified P-class ODN (SEQ ID NO:58, 60-62, 64, and 67) was compared to that of a B-class negative control (SEQ ID NO:55) and a negative control (SEQ ID NO:26).

[2] = test system: PBMC; test: B-cell proliferation in CFSE-labeled human PBMC; format: cell-based; conditions: CFSE-labeled PBMC from three donors, 5 days, CD19 staining
Method: Next the activity of modified P-class class ODN (SEQ ID NO:58, 60-62, FIG. 29a) (SEQ ID NO:64 and 67, FIG. 29b) was compared to that of an unmodified B-class ODN (SEQ ID NO:55), an unmodified C-class ODN (SEQ ID NO:54), a negative control ODN (SEQ ID NO:53), an unmodified P-class ODN (SEQ ID NO:56), LPS, R-848, SEB, and a poly[I]:[C] ODN. CFSE-labeled PBMC from three donors were incubated with the ODN for 5 days and then stained with a CD19 antibody. The percentage of B cells with reduced CFSE staining was determined.

[3] = test system: BALB/c mouse splenocytes; test: B cell proliferation in CFSE-stained mouse splenocytes (FACS); format: cell-based; conditions: 0.001-10 μg/ml ODN, 72 hours, CD19 FACS
Method: Caboxy-florescein diacetate, succimidyl ester (CFSE) (Invitrogen, Eugene, Oreg., USA) stained BALB/c mouse splenocytes (4×10^5/well) were incubated with different concentrations of ODN in a humidified 5% CO2 incubator at 37° C. for […]. Cells were then stained with PE conjugated anti-CD19 antibody (BD Pharmingen, San Diego, Calif., USA) for CD19 and B-cell proliferation was determined by FACS followed by analysis by ModFit Software V3.0 (Verity Software House Inc., Topsham, Me., USA).
ODN were then tested their ability to induce B cell proliferation in splenocytes. CFSE-stained BALB/c mouse splenocytes (4×10^5/well) were incubated with 0.001, 0.01, 0.1, 0.3, 1, 3 or 10 μg/ml of the indicated ODN (FIG. 14). At 72 hours post-incubation, cells were stained for cell surface marker CD19 and B-cell proliferation was determined by FACS followed by analysis by ModFit Software. […] The increase was most pronounced even at lower ODN concentration.

[4] = test system: BALB/c mouse splenocytes; test: Cytokine ELISA of mouse splenocyte culture supernatants; format: cell-based; conditions: BALB/c splenocyte supernatants at 6 hour (TNF-alpha) or 24 hours (IL-6, IL-10, IL-12)
Excerpt: Naïve BALB/c mouse splenocytes (from pools of 3-5 animals) were used for in vitro assays. Animals were anaesthetized with isoflurane and euthanized by cervical dislocation. Spleens were removed under aseptic conditions and placed in PBS+0.2% bovine serum albumin (Sigma Chemical Company). Spleens were then homogenized and splenocytes were re-suspended in RPMI 1640 (Life Technologies, Grand Island, N.Y.) tissue culture medium supplemented with 2% normal mouse serum (Cedarlane Laboratories, Ontario, Canada), penicillin-streptomycin solution (final concentration of 1000 U/ml and 1 mg/ml respectively; Sigma Chemical Company), and 5×10−5 M b-mercaptoethanol (Sigma Chemical Company).
In order to determine the efficacy of the modified ODN of the invention […], ODN with lipophilic T analogs were tested in isolated mouse splenocytes. BALB/c mouse splenocytes were isolated and incubated with modified B class (SEQ ID NO:13), unmodified B class (SEQ ID NO:37), and a non-CpG ODN (SEQ ID NO:26) (Table 5). Culture supernatants were collected at 6 hour (TNF-alpha) or 24 hours (IL-6, IL-10, IL-12) and cytokine concentration was measured by ELISA.

[5] = biological target: T1, human TLR9 (Homo sapiens, UniProt Q9NR96); test: TLR9 luciferase assay (NF-κB reporter) in hTLR9-LUC-293 cells; format: cell-based; conditions: 16 h, stated in words relative to the comparator ODN
T1 construct: expressed in transfected cells
T1 sequence (Q9NR96 26-1032): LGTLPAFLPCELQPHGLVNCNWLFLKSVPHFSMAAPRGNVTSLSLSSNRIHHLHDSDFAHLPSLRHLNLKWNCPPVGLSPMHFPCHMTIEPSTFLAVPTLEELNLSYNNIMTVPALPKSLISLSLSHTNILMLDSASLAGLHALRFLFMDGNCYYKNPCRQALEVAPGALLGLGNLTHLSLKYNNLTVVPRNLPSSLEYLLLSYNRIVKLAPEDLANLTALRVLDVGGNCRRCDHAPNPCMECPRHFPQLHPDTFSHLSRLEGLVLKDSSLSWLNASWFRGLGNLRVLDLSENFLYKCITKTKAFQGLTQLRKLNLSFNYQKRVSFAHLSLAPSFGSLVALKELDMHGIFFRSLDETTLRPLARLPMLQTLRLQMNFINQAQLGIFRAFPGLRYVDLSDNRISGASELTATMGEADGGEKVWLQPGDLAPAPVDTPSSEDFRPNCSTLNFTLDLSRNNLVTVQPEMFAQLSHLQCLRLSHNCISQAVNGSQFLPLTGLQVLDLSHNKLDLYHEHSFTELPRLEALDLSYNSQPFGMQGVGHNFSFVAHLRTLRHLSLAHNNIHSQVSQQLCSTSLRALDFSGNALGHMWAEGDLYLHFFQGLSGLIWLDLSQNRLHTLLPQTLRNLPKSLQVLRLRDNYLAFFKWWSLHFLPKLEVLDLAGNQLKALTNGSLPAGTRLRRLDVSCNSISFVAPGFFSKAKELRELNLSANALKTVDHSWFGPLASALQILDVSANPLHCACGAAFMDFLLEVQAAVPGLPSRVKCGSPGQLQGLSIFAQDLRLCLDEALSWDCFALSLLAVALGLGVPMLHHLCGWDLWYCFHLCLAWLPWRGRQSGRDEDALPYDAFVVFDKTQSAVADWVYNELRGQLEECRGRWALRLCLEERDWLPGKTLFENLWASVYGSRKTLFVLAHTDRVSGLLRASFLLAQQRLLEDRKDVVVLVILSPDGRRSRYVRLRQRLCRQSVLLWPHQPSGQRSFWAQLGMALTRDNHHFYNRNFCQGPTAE
Method: HEK293 cells were transfected by electroporation with vectors expressing the respective human TLR and a 6xNF-κB-luciferase reporter plasmid. Stable transfectants (3×10^4 cells/well) were incubated indicated amounts of ODN for 16 h at 37° C. in a humidified incubator. Each data point was done in triplicate. Cells were lysed and assayed for luciferase gene activity (using the BriteLite kit from Perkin-Elmer, Zaventem, Belgium). Stimulation indices were calculated in reference to reporter gene activity of medium without addition of ODN.

[6] = test system: BALB/c mice; test: In vivo plasma cytokine production after SC injection (ELISA); set-up: species or system mouse
Method: as §1
To measure the effect of modified ODN in vivo, BALB/c mice (5 per group) were injected subcutaneously (SC) with 10, 50 or 100 μg of SEQ ID NO:13 or 100 μg of SEQ ID NO:37 in a total volume of 100 μl SC. Control group received 100 μl of PBS alone. Animals were bled by cardiac puncture at 1 hour post injection (TNF-alpha) or 3 hours post injection (IP-10). Plasma samples were assayed ELISA for TNF-alpha (FIG. 15a) and IP-10 (FIG. 15b).

Row | Substance | plasma IFN-alpha induction [1] | percentage of B cells with reduced CFSE staining [2] | B-cell proliferation [3] | cytokine concentration (TNF-alpha, IL-6, IL-10, IL-12) [4] | TLR9 stimulation (NF-κB luciferase activity, relative stimulation index) [5] | plasma TNF-alpha production ([6]; 1 hour post injection) | plasma IP-10 production ([6]; 3 hours post injection)
1 | T*C*G*T*C*G*T*T*T*T*G*T*C*G*T*T*T*T*G*T*C*G*T*T [SEQ ID NO:55, reference compound] | did not induce much murine IFN-alpha | highest percentage of B cells after division | – | – | – | – | –
2 | T*G*JU*C-G*T*T*T*T*T*T*T*T*T*T*T*T*T*T*T (DNA dT*dG*d[5IU]*dCdG*dT*dT*dT*dT*dT*dT*dT*dT*dT*dT*dT*dT*dT*dT*dT) [SEQ ID NO:13] | – | – | marked increase in B-cell proliferation | dramatically increased levels of all cytokines tested | greater stimulation of TLR9 activity over control; also recorded: more active in the assay than the parent ODN | higher | higher
